Results reported in ChEMBL document CHEMBL5620399, “Discovery of orally active sulfonylphenyl thieno[3,2-d]pyrimidine derivatives as GPR119 agonists” (Eur J Med Chem, 2023).
Blank lines part the entries; values can stand above or below the compound they belong to.

Key:
[1] = biological target: T1, Glucose-dependent insulinotropic receptor (Homo sapiens, UniProt Q8TDV5); assay: Agonist activity at human GPR119 expressed in CHO-K1 cells preincubated for 5 hrs followed by substrate addition measured after 2 hrs by fluorescence based assay; type: functional, cell-based
T1 sequence (Q8TDV5 whole entry): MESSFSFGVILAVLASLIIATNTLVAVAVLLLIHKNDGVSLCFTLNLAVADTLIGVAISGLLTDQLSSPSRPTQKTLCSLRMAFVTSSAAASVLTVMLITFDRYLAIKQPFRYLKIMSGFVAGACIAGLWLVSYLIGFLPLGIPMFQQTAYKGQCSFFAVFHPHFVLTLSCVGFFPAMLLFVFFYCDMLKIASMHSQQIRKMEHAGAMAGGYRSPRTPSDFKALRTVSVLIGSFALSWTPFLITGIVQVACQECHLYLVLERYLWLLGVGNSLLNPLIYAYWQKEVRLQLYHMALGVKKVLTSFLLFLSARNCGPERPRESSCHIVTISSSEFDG

[2] = Agonist activity at GPR119 in Golden hamster HIT-T15 cells assessed as increase in intracellular cAMP level incubated for 1 hr by fluorescence based assay; type: cell-based; conditions: Mesocricetus auratus, HIT-T15, 1 h
[3] = Tmax in ICR mouse at 10 mg/kg, po; type: ADME, organism-based; conditions: in vivo
[4] = Microsomal stability in mouse liver microsomes assessed as compound remaining at 5 uM measured after 60 mins in presence of NADPH by HPLC analysis; type: ADME, Microsome; conditions: read-out: Stability
[5] = MRTlast in Sprague-Dawley rat at 5 mg/kg, po; type: ADME, organism-based; conditions: in vivo
[6] = MRTlast in ICR mouse at 1 mg/kg, iv; type: ADME, organism-based; conditions: in vivo
[7] = AUC (0 to 24 hrs) in ICR mouse at 10 mg/kg, po; type: ADME, organism-based; conditions: in vivo
[8] = Cmax in ICR mouse at 10 mg/kg, po; type: ADME, organism-based; conditions: in vivo
Mus musculus = assay: Anti-diabetic activity in C57BL mouse assessed as reduction in AUC (0 to 2 hrs) at 3 mg/kg, po followed by oral administration of glucose measured for 2 hrs by OGTT assay relative to control; type: functional; design: scale not given: the % may be the effect or the level left
[9] = Oral bioavailability in ICR mouse at 10 mg/kg; type: ADME, organism-based; conditions: in vivo
[10] = AUC (0 to 24 hrs) in ICR mouse at 1 mg/kg, iv; type: ADME, organism-based; conditions: in vivo
[11] = Oral bioavailability in Sprague-Dawley rat at 5 mg/kg; type: ADME, organism-based; conditions: in vivo
[12] = Tmax in Sprague-Dawley rat at 5 mg/kg, po; type: ADME, organism-based; conditions: in vivo
[13] = Microsomal stability in human liver microsomes assessed as compound remaining at 5 uM measured after 60 mins in presence of NADPH by HPLC analysis; type: ADME, Microsome; conditions: read-out: Stability
Cytochrome P450 2D6 = Cytochrome P450 2D6 (Homo sapiens, UniProt P10635); assay: Inhibition of CYP2D6 (unknown origin) using 3-[2-(N,N-diethyl-N-methylammonium)ethyl]-7-methoxy-4-methylcoumarin as substrate preincubated for 10 mins followed by addition of NADPH generating system measured after 30 mins by fluorescence based assay; type: ADME
[14] = Half life in Sprague-Dawley rat at 1 mg/kg, iv; type: ADME, organism-based; conditions: in vivo
Rattus norvegicus = assay: Anti-diabetic activity in Sprague-Dawley rat assessed as reduction in AUC (0 to 2 hrs) at 3 mg/kg, po followed by oral administration of glucose measured for 2 hrs by OGTT assay relative to control; type: functional; design: scale not given: the % may be the effect or the level left
[15] = MRTlast in Sprague-Dawley rat at 1 mg/kg, iv; type: ADME, organism-based; conditions: in vivo
Cytochrome P450 2C19 = Cytochrome P450 2C19 (Homo sapiens, UniProt P33261); assay: Inhibition of CYP2C19 (unknown origin) using 7-ethoxy-3-cyanocoumarin as substrate preincubated for 10 mins followed by addition of NADPH generating system measured after 30 mins by fluorescence based assay; type: ADME
[16] = Volume of distribution in ICR mouse at 1 mg/kg, iv; type: ADME, organism-based; conditions: in vivo
[17] = AUC (0 to 24 hrs) in Sprague-Dawley rat at 5 mg/kg, po; type: ADME, organism-based; conditions: in vivo
[18] = Half life in Sprague-Dawley rat at 5 mg/kg, po; type: ADME, organism-based; conditions: in vivo
Cytochrome P450 2C9 = Cytochrome P450 2C9 (Homo sapiens, UniProt P11712); assay: Inhibition of CYP2C9 (unknown origin) using 7-methoxy-4-trifluoromethylcoumarin as substrate preincubated for 10 mins followed by addition of NADPH generating system measured after 30 mins by fluorescence based assay; type: ADME
[19] = AUC (0 to 24 hrs) in Sprague-Dawley rat at 1 mg/kg, iv; type: ADME, organism-based; conditions: in vivo
[20] = MRTlast in ICR mouse at 10 mg/kg, po; type: ADME, organism-based; conditions: in vivo
[21] = Clearance in Sprague-Dawley rat at 1 mg/kg, iv; type: ADME, organism-based; conditions: in vivo
[22] = Microsomal stability in rat liver microsomes assessed as compound remaining at 5 uM measured after 60 mins in presence of NADPH by HPLC analysis; type: ADME, Microsome; conditions: read-out: Stability
[23] = Half life in ICR mouse at 1 mg/kg, iv; type: ADME, organism-based; conditions: in vivo
Cytochrome P450 3A4 = Cytochrome P450 3A4 (Homo sapiens, UniProt P08684); assay: Inhibition of CYP3A4 (unknown origin) using 7-benzyloxy-4-trifluoromethylcoumarin as substrate preincubated for 10 mins followed by addition of NADPH generating system measured after 30 mins by fluorescence based assay; type: ADME
Cytochrome P450 1A2 = biological target: T2, Cytochrome P450 1A2 (Homo sapiens, UniProt P05177); assay: Inhibition of CYP1A2 (unknown origin) using 7-ethoxy-3-cyanocoumarin as substrate preincubated for 10 mins followed by addition of NADPH generating system measured after 30 mins by fluorescence based assay; type: ADME
T2 sequence (P05177 whole entry): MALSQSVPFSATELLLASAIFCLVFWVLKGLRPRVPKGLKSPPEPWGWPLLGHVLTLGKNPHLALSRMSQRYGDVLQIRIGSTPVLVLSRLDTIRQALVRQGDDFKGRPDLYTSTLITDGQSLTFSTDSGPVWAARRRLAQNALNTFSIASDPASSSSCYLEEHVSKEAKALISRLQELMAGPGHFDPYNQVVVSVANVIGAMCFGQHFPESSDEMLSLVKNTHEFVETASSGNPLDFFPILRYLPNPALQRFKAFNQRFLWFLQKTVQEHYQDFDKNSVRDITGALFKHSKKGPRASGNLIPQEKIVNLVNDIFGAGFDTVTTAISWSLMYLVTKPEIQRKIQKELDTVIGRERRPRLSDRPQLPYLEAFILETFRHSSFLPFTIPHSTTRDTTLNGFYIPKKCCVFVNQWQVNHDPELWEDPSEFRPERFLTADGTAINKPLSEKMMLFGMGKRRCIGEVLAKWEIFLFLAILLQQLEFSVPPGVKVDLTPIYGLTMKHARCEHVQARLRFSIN

[24] = Clearance in ICR mouse at 1 mg/kg, iv; type: ADME, organism-based; conditions: in vivo
[25] = Cmax in Sprague-Dawley rat at 5 mg/kg, po; type: ADME, organism-based; conditions: in vivo
[26] = Half life in ICR mouse at 10 mg/kg, po; type: ADME, organism-based; conditions: in vivo
[27] = Microsomal stability in dog liver microsomes assessed as compound remaining at 5 uM measured after 60 mins in presence of NADPH by HPLC analysis; type: ADME, Canis lupus familiaris, Microsome; conditions: read-out: Stability
[28] = Volume of distribution in Sprague-Dawley rat at 1 mg/kg, iv; type: ADME, organism-based; conditions: in vivo

Sequence of Cytochrome P450 2C9 (P11712 whole entry): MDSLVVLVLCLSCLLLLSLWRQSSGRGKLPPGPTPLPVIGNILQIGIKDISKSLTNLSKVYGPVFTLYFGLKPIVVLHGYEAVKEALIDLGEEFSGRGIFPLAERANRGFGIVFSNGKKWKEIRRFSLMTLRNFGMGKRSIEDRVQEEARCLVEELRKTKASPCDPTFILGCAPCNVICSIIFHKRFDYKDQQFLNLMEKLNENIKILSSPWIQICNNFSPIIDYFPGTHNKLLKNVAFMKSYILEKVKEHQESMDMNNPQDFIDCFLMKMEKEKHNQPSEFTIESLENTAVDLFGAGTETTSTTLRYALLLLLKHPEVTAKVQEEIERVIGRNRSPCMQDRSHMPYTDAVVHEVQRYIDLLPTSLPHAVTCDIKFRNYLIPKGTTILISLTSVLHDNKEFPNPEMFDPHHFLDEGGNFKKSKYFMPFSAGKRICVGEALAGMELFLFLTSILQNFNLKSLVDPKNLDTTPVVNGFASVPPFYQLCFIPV
Sequence of Cytochrome P450 2D6 (P10635 whole entry): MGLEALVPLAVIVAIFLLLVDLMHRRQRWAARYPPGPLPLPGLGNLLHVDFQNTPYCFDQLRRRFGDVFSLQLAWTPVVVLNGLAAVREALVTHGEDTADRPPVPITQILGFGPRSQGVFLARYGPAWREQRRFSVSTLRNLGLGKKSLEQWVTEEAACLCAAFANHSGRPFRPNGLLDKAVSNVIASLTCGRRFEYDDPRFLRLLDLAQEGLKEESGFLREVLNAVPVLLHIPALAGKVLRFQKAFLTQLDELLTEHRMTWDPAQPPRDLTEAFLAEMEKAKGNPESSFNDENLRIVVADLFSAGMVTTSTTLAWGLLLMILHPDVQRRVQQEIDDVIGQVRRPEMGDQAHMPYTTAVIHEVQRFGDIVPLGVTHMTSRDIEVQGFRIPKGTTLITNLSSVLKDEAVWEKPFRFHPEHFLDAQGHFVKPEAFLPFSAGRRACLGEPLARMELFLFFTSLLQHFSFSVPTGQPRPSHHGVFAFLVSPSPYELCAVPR
Sequence of Cytochrome P450 3A4 (P08684 whole entry): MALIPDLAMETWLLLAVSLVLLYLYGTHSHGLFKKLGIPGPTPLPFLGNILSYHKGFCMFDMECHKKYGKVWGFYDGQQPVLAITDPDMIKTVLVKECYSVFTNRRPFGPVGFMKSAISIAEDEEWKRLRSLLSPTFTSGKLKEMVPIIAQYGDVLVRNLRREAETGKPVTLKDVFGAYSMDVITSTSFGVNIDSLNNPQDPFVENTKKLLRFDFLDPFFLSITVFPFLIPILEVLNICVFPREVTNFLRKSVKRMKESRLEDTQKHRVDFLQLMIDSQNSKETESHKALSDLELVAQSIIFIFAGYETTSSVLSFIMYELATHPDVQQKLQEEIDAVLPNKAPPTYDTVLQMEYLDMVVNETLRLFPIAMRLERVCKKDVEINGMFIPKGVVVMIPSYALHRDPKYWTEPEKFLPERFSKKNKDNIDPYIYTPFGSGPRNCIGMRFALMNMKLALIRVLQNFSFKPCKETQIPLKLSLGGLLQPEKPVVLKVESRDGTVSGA
Sequence of Cytochrome P450 2C19 (P33261 whole entry): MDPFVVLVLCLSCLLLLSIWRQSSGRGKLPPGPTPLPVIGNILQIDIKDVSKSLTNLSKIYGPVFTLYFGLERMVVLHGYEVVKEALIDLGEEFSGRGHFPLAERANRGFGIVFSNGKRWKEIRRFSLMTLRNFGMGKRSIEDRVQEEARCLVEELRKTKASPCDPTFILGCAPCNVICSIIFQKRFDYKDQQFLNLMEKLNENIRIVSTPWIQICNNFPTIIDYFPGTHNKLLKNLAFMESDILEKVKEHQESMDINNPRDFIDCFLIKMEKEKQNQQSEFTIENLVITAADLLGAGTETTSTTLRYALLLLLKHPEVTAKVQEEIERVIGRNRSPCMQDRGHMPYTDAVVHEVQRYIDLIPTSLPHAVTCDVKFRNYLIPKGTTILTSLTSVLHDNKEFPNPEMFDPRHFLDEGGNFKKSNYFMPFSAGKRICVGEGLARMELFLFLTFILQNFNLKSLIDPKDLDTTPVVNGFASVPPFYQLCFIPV

Compound: CC(C)c1noc(N2CCC(Oc3ncnc4c(-c5ccc(S(C)(=O)=O)cc5F)csc34)CC2)n1
Tmax [3]: 0.5 h
remaining at 1 h, 5 µM [4]: 38%
MRT last [5]: 3.2 h
MRT last [6]: 3 h
EC50 [1]: 6.3 nM
AUC(0-t) [7]: 32700 ng·h/mL
Cmax [8]: 9130 ng/mL
Activity (Mus musculus): 37.4%
bioavailability [9]: > 100%
AUC(0-t) [10]: 2770 ng·h/mL
bioavailability [11]: 61.5%
Tmax [12]: 1 h
remaining at 1 h, 5 µM [13]: 35%
IC50 (Cytochrome P450 2D6): > 50000 nM
half-life [14]: 2.8 h
Activity (Rattus norvegicus): 15%
MRT last [15]: 3.6 h
IC50 (Cytochrome P450 2C19): 5550 nM
Vd [16]: 1.2 L/kg
AUC(0-t) [17]: 5720 ng·h/mL
half-life [18]: 2.4 h
IC50 (Cytochrome P450 2C9): > 50000 nM
AUC(0-t) [19]: 1860 ng·h/mL
MRT last [20]: 3.8 h
clearance [21]: 5 mL/min/kg
remaining at 1 h, 5 µM [22]: 48%
half-life [23]: 3.4 h
EC50 [2]: 22.8 nM
IC50 (Cytochrome P450 3A4): 3790 nM
IC50 (Cytochrome P450 1A2): > 50000 nM
clearance [24]: 5 mL/min/kg
Cmax [25]: 1480 ng/mL
half-life [26]: 2.2 h
remaining at 1 h, 5 µM [27]: 62%
Vd [28]: 1.2 L/kg

Compound: CS(=O)(=O)c1ccc(-c2csc3c(N4CCC(c5nc(C6CCCC6)no5)CC4)ncnc23)cc1
remaining at 1 h, 5 µM [4]: 23%
EC50 [1]: 8.7 nM
remaining at 1 h, 5 µM [22]: 9%
EC50 [2]: 16 nM
remaining at 1 h, 5 µM [27]: 10%

Compound: CS(=O)(=O)c1ccc(-c2csc3c(N4CCC(c5nc(C6CC6)no5)CC4)ncnc23)cc1
EC50 [1]: 23.9 nM
EC50 [2]: 16.8 nM

Compound: CN1CCC(Oc2ncnc3c(-c4ccc(S(C)(=O)=O)cc4F)csc23)CC1
EC50 [1]: > 100 nM

Compound: CCCc1noc(N2CCC(Oc3ncnc4c(-c5ccc(S(C)(=O)=O)cc5F)csc34)CC2)n1
EC50 [1]: 2.1 nM

Compound: CS(=O)(=O)c1ccc(-c2csc3c(OC4CCN(c5nc(C6CCCC6)no5)CC4)ncnc23)cc1
EC50 [1]: 5.6 nM
EC50 [2]: > 1000 nM

Compound: CCc1cnc(N2CCC(c3nc(COc4ccc(-n5cnnn5)cc4)cs3)CC2)nc1 [MBX-2982]
EC50 [1]: 3.1 nM
Activity (Mus musculus): 29%
Activity (Rattus norvegicus): 7.3%
EC50 [2]: 2 nM

Compound: CC(C)(C)c1noc(N2CCC(Oc3ncnc4c(-c5ccc(S(C)(=O)=O)cc5F)csc34)CC2)n1
EC50 [1]: 3.6 nM

Compound: CCN(c1ncnc2c(-c3ccc(S(C)(=O)=O)cc3)csc12)C1CCN(c2ccc(C(F)(F)F)cn2)CC1
EC50 [1]: > 100 nM

Compound: CS(=O)(=O)c1ccc(-c2csc3c(N4CCC(c5nc(C6CCCCC6)no5)CC4)ncnc23)cc1
EC50 [1]: 12.5 nM
EC50 [2]: 32.5 nM

Compound: CS(=O)(=O)c1ccc(-c2csc3c(N4CCC(c5nc(C6CCCC6)no5)CC4)ncnc23)c(F)c1
EC50 [1]: 1.9 nM
EC50 [2]: 86.3 nM

Compound: CS(=O)(=O)c1ccc(-c2csc3c(OC4CCNCC4)ncnc23)c(F)c1
EC50 [1]: > 100 nM

Further lines, results first:

EC50 [1]: 15 nM
EC50 [2]: 153 nM
Compound: CCc1cnc(N2CCC(N(CC)c3ncnc4c(-c5ccc(S(C)(=O)=O)cc5)csc34)CC2)nc1

EC50 [1]: 33.8 nM
EC50 [2]: 19.1 nM
Compound: CN(c1ncnc2c(-c3ccc(S(C)(=O)=O)cc3)csc12)C1CCN(C(=O)OC(C)(C)C)CC1

remaining at 1 h, 5 µM [4]: 21%
EC50 [1]: 11.7 nM
remaining at 1 h, 5 µM [13]: 13%
IC50 (Cytochrome P450 2D6): > 50000 nM
IC50 (Cytochrome P450 2C19): 3680 nM
IC50 (Cytochrome P450 2C9): < 620 nM
EC50 [2]: 11.5 nM
IC50 (Cytochrome P450 3A4): 12000 nM
IC50 (Cytochrome P450 1A2): > 50000 nM
remaining at 1 h, 5 µM [27]: 6%
Compound: CC(C)c1noc(C2CCN(c3ncnc4c(-c5ccc(S(C)(=O)=O)cc5)csc34)CC2)n1

EC50 [1]: > 100 nM
Compound: CS(=O)(=O)c1ccc(-c2csc3c(N4CCCCC4)ncnc23)cc1

EC50 [1]: 7.4 nM
EC50 [2]: 35.9 nM
Compound: CCc1cnc(N2CCC(N(C)c3ncnc4c(-c5ccc(S(C)(=O)=O)cc5)csc34)CC2)nc1

EC50 [1]: > 100 nM
Compound: CCN(c1ncnc2c(-c3ccc(S(C)(=O)=O)cc3)csc12)C1CCN(C(=O)OC(C)(C)C)CC1

EC50 [1]: > 100 nM
Compound: CS(=O)(=O)c1ccc(-c2csc3c(N4CCCC4)ncnc23)cc1

EC50 [1]: > 100 nM
Compound: CC(C)(C)OC(=O)N1CCC(Nc2ncnc3c(-c4ccc(S(C)(=O)=O)cc4)csc23)CC1

EC50 [1]: 24.8 nM
EC50 [2]: 47 nM
Compound: CS(=O)(=O)c1ccc(-c2csc3c(OC4CCN(c5nc(C6CC6)no5)CC4)ncnc23)cc1

EC50 [1]: 74.8 nM
Compound: CCc1cnc(N2CCC(Oc3ncnc4c(-c5ccc(S(C)(=O)=O)cc5)csc34)C2)nc1 (configuration not stated)

EC50 [1]: 754 nM
Compound: CC(C)c1noc(N2CCC(Oc3ncnc4c(-c5ccc(S(C)(=O)=O)cc5)csc34)C2)n1 (configuration not stated)

EC50 [1]: 1.4 nM
Compound: CC(C)(C)OC(=O)N1CCC(Oc2ncnc3c(-c4ccc(S(C)(=O)=O)cc4F)csc23)CC1
